Measurements published in patent US20140163048A1, “COMPOSITIONS WITH INCREASED STABILITY FOR INHIBITING TRANSIENT RECEPTOR POTENTIAL ION CHANNEL TRPA1” (Cubist Pharmaceuticals, Inc., priority 2012, published 2014).
Entries after “also recorded” stand apart in the source; their conditions may differ.

Legend:
[1] = test system: TRP channels and voltage-gated ion channels; experiment: Selectivity over the panel of eight tested channels; type: cell-based, human; conditions: eight channels of Table 2
Method: Data for TRPA1 inhibition and the selectivity of TRPA1 inhibition was obtained by this method for the compound of Formula (I) and included in Table 1 and Table 2. All currents were recorded in whole-cell configuration using EPC-9 and EPC-10 amplifiers and Patchmaster software (HEKA). […] The standard pipette solution consisted of 140 mM CsAsp, 10 mM EGTA, 10 mM HEPES, 2.27 mM MgCl2, 1.91 mM CaCl2, 4 mM MgATP, and 0.1-0.3 mM Na2GTP, with pH adjusted to 7.2 with CsOH. In addition, a solution containing 145 mM CsCl, 10 mM HEPES, 10 mM EGTA and 1 mM MgCl2 (pH 7.2 adjusted with csOH) can be used. The standard bath solution contained 150 mM NaCl, 10 mM HEPES, 10 mM glucose, 4.5 mM KCl, 1 mM EGTA, 3 mM MgCl2, with pH adjusted to 7.4 with NaOH. In some instances, 2 mM CaCl2 was added in place of EGTA and the concentration of MgCl2 was reduced to 1 mM.

[2] = 7-day i.p. repeat dose screening toxicity study; type: in vivo, rats; conditions: 50 mg/kg/day i.p. for 7 consecutive days
Method: The compound of Formula (I) was evaluated in a 7-day repeat dose screening toxicity study in female rats. In order to maximize systemic exposure, rats were administered compound of Formula (I) i.p. at 50 mg/kg/day for 7 consecutive days, to obtain the results shown in FIG. 9. Clinical chemistry parameters were evaluated on Days 3 and 8. Histopathology was performed on select organs including the liver, kidney, spleen, and lung.

[3] = test system: serum chemistry biomarkers of hepatotoxicity; experiment: Hepatotoxicity serum biomarker study, oral dose; type: in vivo, dogs; conditions: for serum biomarkers of hepatotoxicity (ALT, AST, ALP, GGT): dogs, 50 mg/kg PO; for ALT levels elevation: single PO dose of 50 mg/kg
Source text: […] 11A, showing measurements of alanine aminotranferease [ALT], aspartate aminotranferease [AST], alkaline phosphatase [ALP] and gamma-glutamyl transferase [GGT] in the dogs at each dose level (each bar represents a measurement from 1 dog in the study).

Compound | selectivity for block of TRPA1 over all other tested channels [1] | histopathology of liver, kidney, spleen, lung ([2]; female rats, days 3 and 8, 50 mg/kg/day) | serum biomarkers of hepatotoxicity (ALT, AST, ALP, GGT) [3] | serum biomarkers of hepatotoxicity ([2]; rats) | ALT levels elevation ([3]; female beagle dogs) | ALT levels elevation ([3]; male dogs)
C[C@H]1CCCN1c1ncc(-c2cccc(NC(=O)Cn3cnc4c3c(=O)n(C)c(=O)n4C)n2)cn1 [Formula (I)] | at least 100 fold | No histopathological findings; also recorded: no adverse effects | did not elevate serum biomarkers of hepatotoxicity or acute phase response | – | – | –
C[C@H]1CCCN1c1ccc(-c2csc(NC(=O)Cn3cnc4c3c(=O)n(C)c(=O)n4C)n2)cc1F [Formula (III)] | – | – | did elevate serum biomarkers of hepatotoxicity | did elevate serum biomarkers of hepatotoxicity | up to 130 fold | up to 60 fold
